The source made the active and inactive calls. The rule behind the calls is not given here.
Columns and labels:
[1] = target: Inosine-5'-monophosphate dehydrogenase 1 (Homo sapiens, UniProt P20839); test: Inhibition of human IMPDH 1
[2] = target: Inosine-5'-monophosphate dehydrogenase 2 (Homo sapiens, UniProt P12268); test: Inhibition of human IMPDH 2
[3] = target: Histone deacetylase; assay type: protein assay, Homo sapiens
[4] = system: K562; test: cells; assay type: functional, cell-based; conditions: Homo sapiens, K562, 72 h
[5] = system: K562; test: Differentiation of K562 cells at 0.50 uM after 5 days by […]; assay type: functional, Homo sapiens
[6] = system: K562; test: Differentiation of K562 cells at 0.005 uM after 5 days by […]; assay type: functional, Homo sapiens
[7] = system: K562; test: Differentiation of K562 cells at 0.25 uM after 5 days by […]; assay type: functional, Homo sapiens

| SMILES | Activity [1] | Activity [2] | IC50 [3] [nM] | IC50 [4] [nM] | Activity [5] [%] | Ki [1] [nM] | Ki [2] [nM] | Activity [6] [%] | Activity [7] [%] |
| --- | --- | --- | --- | --- | --- | --- | --- | --- | --- |
| COc1c(C)c2c(c(OC)c1C/C=C(\C)CCC(=O)NO)C(=O)OC2 | inactive | inactive | 14000 | 42300 |  |  |  |  |  |
| O=C(CCCCCCC(=O)Nc1ccccc1)NO [VORINOSTAT] | inactive | inactive |  |  | 47.4 |  |  |  |  |
| COc1c(C)c2c(c(O)c1C/C=C(\C)CCC(=O)Nc1ccccc1N)C(=O)OC2 |  |  | > 100000 | 60000 |  | 2830 | 650 |  |  |
| COc1cc(NC(=O)CCCCCCC(=O)NO)ccc1-c1cnco1 |  |  | 60 | 290 |  | 5000 | 1700 | 87.8 |  |
| COc1c(C)c2c(c(O)c1C/C=C(\C)CCCC(=O)NO)C(=O)OC2 |  |  | 10400 | 10800 |  | 400 | 1100 |  |  |
| COc1c(C)c2c(c(O)c1CCC(C)CCC(=O)NO)C(=O)OC2 (stereo not given) |  |  | 20100 | 44700 |  | 2070 | 540 |  |  |
| COc1c(C)c2c(c(O)c1C/C=C(\C)CCC(=O)O)C(=O)OC2 [MYCOPHENOLIC ACID] |  |  |  |  |  |  |  |  | 46.4 |
| COc1c(C)c2c(c(O)c1C/C=C(\C)CCC(=O)NO)C(=O)OC2 [MYCOPHENOLIC HYDROXAMIC ACID] |  |  | 5000 | 4800 |  | 70 | 30 |  | 75 |

Source: ChEMBL document CHEMBL1138342, “Dual inhibitors of inosine monophosphate dehydrogenase and histone deacetylases for cancer treatment” (J Med Chem, 2007)
